Laboratory results published in paper PMC10869644 (Molecular plant, 2024).

Biological target: T1, ABA2 (ABA DEFICIENT 2) (Arabidopsis thaliana, UniProt Q9C826)
T1 sequence (Q9C826 1-285 limits assumed): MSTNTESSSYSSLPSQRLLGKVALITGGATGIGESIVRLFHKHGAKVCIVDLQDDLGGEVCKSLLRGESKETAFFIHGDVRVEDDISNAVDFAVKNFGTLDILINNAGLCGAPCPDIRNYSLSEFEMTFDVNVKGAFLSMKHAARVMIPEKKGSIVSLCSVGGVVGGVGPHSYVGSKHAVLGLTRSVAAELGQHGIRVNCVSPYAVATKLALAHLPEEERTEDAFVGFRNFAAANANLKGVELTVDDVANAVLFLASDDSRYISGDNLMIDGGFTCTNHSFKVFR
Experiment: NADH formation at A340, dehydrogenase activity
Format: biochemical
Settings: 500 μM NAD+, 30 mM 3,5,5′-trimethylcyclohexanol, 100 mM K2HPO4 pH 7.2, 25°C; noncompetitive

% decrease of activity (2 μg lipid): 75%
Substance: di-18:1-PA
